This note sets out measurements from patent publication US20250302816A1, “DISRUPTION OF EPITHELIAL BARRIERS FOR MOLECULAR DELIVERY ENHANCEMENT OR EXTRACTION OF EXTRACELLULAR FLUIDS” (The University of Nottingham, priority 2022, published 2025).

This test has as its system Calu-3. Briefly: Further in vitro Transwell studies: enhancing translocation of 4 kDa FITC-dextran. The format is cell-based, human. How it is done:
Exemplary molecules (a)-(1) investigated in coarse dose-response by FD4 delivery in Transwell culture (Calu-3). Each molecule was screened at 5 nM, 1 μM, 200 μM levels.
Each compound was screened at 200 μM level.
Each molecule was screened at 5 nM, 1 μM, 200 μM levels.

`CCCCCCCCCC(=O)CC(=O)N[C@H]1CCOC1=O` [Agent 3OC12-HSL, N-(3-oxododecanoyl) homoserine lactone]: the “Effective in enhancing translocation” value is reported as “Yes”.
